Results: patent US20170128459A1, “PHARMACEUTICAL COMPOSITION CONTAINING SIRT2 INHIBITOR” (Industrial Cooperation Foundation Chonbuk National …, priority 2014, published 2017)

Columns and labels:
[1] = system: acetyl p53; test: Western blot of acetyl p53 in kidney tissues after cisplatin; assay type: in vivo; details: kidney of mouse having SIRT2 treated with cisplatin
Description: (§1) Generally, kidney injuries caused by cisplatin are affected by apoptosis. To determine the effect of SIRT2 gene knockout on controlling apoptosis caused by cisplatin, the acetylation of caspase-3 and p53 was observed through western blotting.
(§2) Kidney tissues were obtained by the method of the above Example 9-2 and then were homogenized to extract proteins therefrom, and the caspase-3 and acetyl p53 protein expression patterns were determined using caspase-3 and acetyl p53 antibodies (Cell Signaling Technology, Danvers, Mass. US). The same blots were peeled off to determine the exact amount of proteins using actin (Sigma-Aldrich Co. LLC., St Louis, Mo., US) and p53 (Cell Signaling Technology, Inc.).

[2] = Survival rate after cisplatin administration; assay type: in vivo, mouse; details: control group (SIRT2+/+) administered cisplatin
Text: Based on the result, it can be seen that the knocking out an SIRT2 gene inhibits kidney injuries caused by cisplatin.

[3] = system: ICAM-1; test: Western blot of ICAM-1 in kidney tissues after cisplatin; assay type: in vivo, mouse; details: kidney tissues of WT mice administered cisplatin
Description: (§3) An investigation was performed to see if the expression of ICAM-1 and VCAM-1 genes, which are molecules related to inflammatory response, in an experimental group administered cisplatin is regulated by an SIRT2 gene. Western blotting was performed by the method of the above Example 11, using ICAM-1 (Santa Cruz Biotechnology, Santa Cruz, Calif., US) and VCAM-1 (Santa Cruz Biotechnology, Santa Cruz, Calif., US) antibodies.

[4] = system: mouse proximal tubule cells; test: Cell proliferation test (XTT); assay type: cell-based; details: 24 hours, 1% FBS
Description: Specifically, the cell proliferation test was performed by treating mouse proximal tubule cells with trypsin, the cells were put in a 96-well plate at 1×10^3 cells for each well, cultured for 24 hours at 37° C., the culture medium was removed, and each of AGK2, AK-1, cisplatin, cisplatin+AGK2, and cisplatin+AK-1 was treated with a culture medium containing 1% FBS. After culturing for 24 hours at 37° C., the degree of cell proliferation was measured using a cell proliferation kit (Cell proliferation Kit II, XTT, Roche, Mannheim, Germany). As cells proliferate, the amount of color-developing material of mitochondria within cells increases, and thus the absorbance increases. Therefore, the proliferation of the mouse proximal tubule cells was determined based on the absorbance, and the results are provided in FIG. 34.

[5] = system: VCAM-1; test: Western blot of VCAM-1 in kidney tissues after cisplatin; assay type: in vivo, mouse; details: kidney tissues of WT mice administered cisplatin
Description: as §3

[6] = system: mouse proximal tubule cells; test: Cell damage caused by cisplatin (number of adhesion cells, microscopy); assay type: cell-based
Description: To confirm if an SIRT2 inhibitor has an effect of inhibiting cell damage caused by cisplatin, the effects of AGK2 and AK-1, which are SIRT2 inhibitors, when the mouse proximal tubule cells were treated with cisplatin were examined. Specifically, mouse proximal tubule cells were treated with AGK2 (10 μM) and AK-1 (10 μM), which are SIRT2 inhibitors, 30 minutes prior to being treated with cisplatin (20 μg/ml) for 48 hours, and the cells were visualized by a Zeiss Z1 microscope.

[7] = system: caspase-3; test: Western blot of caspase-3 in kidney tissues after cisplatin; assay type: in vivo, mouse; details: kidney tissues of WT mice administered cisplatin
Description: as §1, §2

[8] = system: CXCL2; test: CXCL2 mRNA expression by qRT-PCR in LPS-treated mouse proximal tubule cells; assay type: cell-based; details: AK-1 10 μM 30 minutes prior to 1-hour LPS (10 μg/ml); compared with LPS-increased expression
Description: (§4) Mouse proximal tubule cells, which were donated by Dr Lloyd G. Cantley (Yale University School of Medicine, New Haven, Conn., US), were prepared by culturing, in an α-MEM medium containing added fetal bovine serum at 10% (vol/vol), under conditions including a humidified atmospheric condition of 5% CO2 and 95% air and a temperature condition of 37° C.
(§5) To remove the SIRT2 gene from the cells, siRNA (100 pmol, Dharmacon ON-TARGETplus SMARTpool, Dharmacon Inc., CO, US) and 10 μl Lipofectamine® 2000 (Invitrogen™, Carlsbad, Calif., US) were diluted in an Opti-MEM medium for the cell treatment, and, 7 hours later, the cells were transferred into a cell culture medium for cell culture. 2 days after the initiation of the cell culture, the cells were collected and a decrease in an SIRT2 protein was observed therefrom.
1, 3, and 6 hours after the treatment with the LPS and the CB following the SIRT2 siRNA treatment, the cell culture medium, RNA, and proteins were collected to perform quantitative real-time PCR (qRT-PCR) and an enzyme linked immunosorbent assay. […]
(§6) Mouse proximal tubule cells were treated with AK-1 (10 μM), which is an SIRT2 inhibitor, 30 minutes prior to a 1-hour treatment with an LPS (10 μg/ml). The cells were collected and CXCL2 and CCL2 mRNA expression levels thereof were determined through qRT-PCR.

[9] = system: CCL2; test: CCL2 mRNA expression by qRT-PCR in LPS-treated mouse proximal tubule cells; assay type: cell-based; details: AK-1 10 μM 30 minutes prior to 1-hour LPS (10 μg/ml); compared with LPS-increased expression
Description: as §4, §5
1, 3, and 6 hours after the treatment with the LPS and the CB following the SIRT2 siRNA treatment, the cell culture medium, RNA, and proteins were collected to perform quantitative real-time PCR (qRT-PCR) and an enzyme linked immunosorbent assay.
The CCL2 expression pattern was observed by the method of Example 4.
as §6

[10] = used together with cisplatin, compared with cisplatin alone
[11] = SIRT2 inhibitor 10 μM 30 minutes prior to cisplatin 20 μg/ml for 48 hours, compared with cisplatin alone

N.N.[Cl][Pt][Cl] [cisplatin, cis-diammine-dichloroplatinum [II]]
p53 acetylation [1]: increased
survival [2]: all mice died in 6 days
ICAM-1 expression [3]: increased
cell proliferation (XTT absorbance) ([4]; cisplatin alone): decreased
VCAM-1 expression [5]: increased
number of adhesion cells ([6]; cisplatin 20 μg/ml for 48 hours alone): decreased
cleaved caspase-3 expression [7]: increased

O=C(Nc1cccc([N+](=O)[O-])c1)c1cccc(S(=O)(=O)N2CCCCCC2)c1 [AK-1]
CXCL2 mRNA expression level [8]: decrease
CCL2 mRNA expression level [9]: decrease
cell proliferation (XTT absorbance) [4, 10]: significantly increased
number of adhesion cells [6, 11]: significantly increased

O=C(Nc1cccc2ncccc12)/C(O)=C/c1ccc(-c2cc(Cl)ccc2Cl)o1 [AGK2]
cell proliferation (XTT absorbance) [4, 10]: significantly increased
number of adhesion cells [6, 11]: significantly increased
